Like-named read-outs stand apart in the source and are kept apart here.
How the values were obtained:
[1] = system: PAF-induced hyperalgesia; assay: Platelet Activating Factor (PAF) Induced Hyperalgesia in the Rat; format: in vivo, female Sprague-Dawley rats; settings: for responders at 30 mg/kg: Rattus norvegicus, read-out: % Rats Exhibiting Analgesia; for Effect in PAF-induced hyperalgesia assay: p.o.; for Vocalization Threshold: mean in inflamed paw 3 hr after PAF; for % Analgesia: percentage of animals with V.T. greater than 200% of vehicle-treated controls
Method: 1. Platelet Activating Factor. Induced Hyperalgesia in the Rat.
Groups of 10 female Sprague-Dawley rats, 35-50 g (Taconic Farms), were fasted overnight prior to testing. Hyperalgesia was induced in the rat by the subplantar injection of 1 ug PAF in physiological saline. Pain threshold was measured by applying pressure to the plantar surface of the hindpaw by means of a compressed air driven piston with a 2 mm tip. Vocalization thresholds were obtained 3 hr after injection of the PAF. Compounds, prepared at various doses in 1% methylcellulose suspension, were administered perorally 30 min before PAF. For each drug treatment group, animals with response pressures in the inflamed paw of 200% of control was considered to be analgesic. The mean vocalization threshold for each group was also calculated.

[2] = system: PBQ-induced writhing; assay: Phenylbenzoquinone (PBQ)-induced writhing in the Mouse; format: in vivo, female mice (CD-1); settings: for ED50: Mus musculus, po; for % Inhibition: writhing
Method: 2. PHENYLBENZOQUINONE (PBQ)-induced writhing in the Mouse […] Groups of 10 female mice (CD-1, Charles River Breeding Laboratories), weighing 20-25 g were fasted overnight prior to experiments. […] The number of writhes for each animal was recorded and the group means and standard errors were calculated. The means obtained from the drug treated groups were compared to the vehicle control means values and percent inhibition of writhing was calculated. ED50 values were calculated by regression analysis.

[3] = system: adjuvant-induced arthritis (Mycobacterium butyricum); assay: Developing Adjuvant-Induced Arthritis Assay in the Lewis Rat; format: in vivo, Female Lewis rats; design: Foot Swelling-Day 14: unit not given here; settings: for Adrenal Weight / Change Body Weight 0-21 days / Foot Swelling-Day 14 / Foot Swelling-Day 21 / Thymus Weight: mean ± SEM; for Bone/Cartilage Destruction Score: score 0-3, 0 = 0 destruction, 3 = Maximum destruction; for Protection from bone/cartilage (hard tissue) destruction, X-ray: day 21, hindpaw joints, Compound A 3.0 and 10 mg/kg/day, Indomethacin 1 mg/kg/day
Method: 3. Adjuvant Arthritis Assay
During the development of adjuvant arthritis, the rats lose body weight, the thymus gland involutes and the adrenal gland weight increases.
Female Lewis rats (purchased from Charles River, Wilmington, MA) were sorted into groups of ten in the weight range 160-199 g. The rats were sensitized to Mycobacterium butyricum (Difco) by the subplantar injection of 0.1 ml light mineral oil (Lubinol, Purepac Pharmaceutical Co., Elizabeth, NJ) containing 0.5 mg of the Mycobacterium into the left hindpaw. The Mycobacterium suspension was prepared by grinding in a glass mortar followed by the addition of the appropriate volume of light mineral oil. The suspension was transferred to a glass vial and stirred for 15 minutes on a magnetic stirrer to obtain a uniform suspension. After sensitization the rats were returned to metronic wire-bottomed cages and allowed food and water ad libitum with the food placed on the bottom of the cages for easy access. […] Rats received compound daily perorally as a suspension in 0.25% agar starting on the day of sensitization. Disease was quantitated by measuring the volume of the noninjected hindpaw by mercury displacement on days 0, 14 and 21. On day 21 (at the termination of the experiment) x-rays of the noninjected hindpaw were taken using a Phillips dental x-ray machine. Total body weight was determined on days 0 and 21 and at the termination of the experiment the thymus was removed and weighed. The statistical significance of the data was determined using Students t test.

[4] = system: indomethacin-induced gastric lesions; format: in vivo, Male Sprague-Dawley rats; settings: for No. Gastric Lesions: Mean + S.E.M.
Method: Male Sprague-Dawley rats, 130-150 g each, were sorted into groups for assay. The rats were fasted for 24 hours.
Several hours after the administration of compound A, the animals are sacrificed, the stomachs removed, excises along the inner curvature, washed carefully with cool tap water and placed in 0.9% saline. When all groups have been processed, the mucosal region of the stomachs are examined under a magnifying lens and scored according to the total number of lesions present. Group scores represent the mean score of animals in that group. The effect of Compound A on indomethacin-induced gastric lesions is shown below in Table 6: […]

[5] = system: gastric acid secretion / gastric cytoprotection; settings: S. Szabo et al., Experimentia, 38, 254, 1982; cited from earlier work
[6] = Platelet, po, 3 h, Table 2, 30 mg/kg p.o.

CC(C)Cc1ccc(C(C)C(=O)O)cc1 (stereo not shown) [Ibuprofen, reference compound]
responders at 30 mg/kg [1, 6]: 10%
Effect in PAF-induced hyperalgesia assay ([1]; rat): completely ineffective
ED50 [2]: 9 mg/kg

O=C(NC=C(c1ccccc1)c1cccs1)c1sc2ccc(C(F)(F)F)cc2c1O [Compound A, 3-hydroxy-5-trifluoromethyl-N-[2-phenyl-2-(2-thienyl)]-benzo[b]thiophene-2-carboxamide]
ED50 ([1]; Platelet, po, 3 h, rat, dose required to raise VT to greater than 200% of vehicle-treated control in 50% of animals, confidence limits 0.11-0.3): 0.19 mg/kg
% Rats Exhibiting Analgesia ([1]; Table 2, 0.1 mg/kg p.o.): 50%
Vocalization Threshold ([1]; rat, 0.001 mg/kg p.o. 30 min before PAF): 10.2 mmHg
% Analgesia ([1]; rat, 0.001 mg/kg p.o.): 10%
Vocalization Threshold ([1]; rat, 0.01 mg/kg p.o. 30 min before PAF): 13.3 mmHg
% Analgesia ([1]; rat, 0.01 mg/kg p.o.): 25%
Vocalization Threshold ([1]; rat, 0.03 mg/kg p.o. 30 min before PAF): 13.0 mmHg
% Analgesia ([1]; rat, 0.03 mg/kg p.o.): 30%
Vocalization Threshold ([1]; rat, 0.1 mg/kg p.o. 30 min before PAF): 16.9 mmHg
% Analgesia ([1]; rat, 0.1 mg/kg p.o.): 50%
Vocalization Threshold ([1]; rat, 0.3 mg/kg p.o. 30 min before PAF): 17.6 mmHg
% Analgesia ([1]; rat, 0.3 mg/kg p.o.): 50%
Vocalization Threshold ([1]; rat, 1.0 mg/kg p.o. 30 min before PAF): 20.1 mmHg
% Analgesia ([1]; rat, 1.0 mg/kg p.o.): 67%
Vocalization Threshold ([1]; rat, 3.0 mg/kg p.o. 30 min before PAF): 18.3 mmHg
% Analgesia ([1]; rat, 3.0 mg/kg p.o.): 70%
ED50 [2]: 1 mg/kg
Analgesic activity compared with standard drugs ([2]; mouse, PBQ writhing, p.o.): equivalent to piroxicam and greater than ibuprofen
% Inhibition ([2]; mouse, 0.1 mg/kg p.o. 1 hr before PBQ): 9 ± 3%
% Inhibition ([2]; mouse, 0.3 mg/kg p.o. 1 hr before PBQ): 10 ± 5%
% Inhibition ([2]; mouse, 1.0 mg/kg p.o. 1 hr before PBQ): 39 ± 13%
% Inhibition ([2]; mouse, 3.0 mg/kg p.o. 1 hr before PBQ): 78 ± 7%
% Inhibition Foot Swelling-Day 14 ([3]; 3.0 mg/kg/day P.O.): 56%
% Inhibition Foot Swelling-Day 21 ([3]; 3.0 mg/kg/day P.O.): 43%
Adrenal Weight ([3]; 3.0 mg/kg/day P.O.): 74.6 ± 3.3 mg
Change Body Weight 0-21 days ([3]; 3.0 mg/kg/day P.O.): -14.7 ± 3.2 gm
Foot Swelling-Day 14 ([3]; 3.0 mg/kg/day P.O.): 449 ± 83
Foot Swelling-Day 21 ([3]; 3.0 mg/kg/day P.O.): 921 ± 125
Thymus Weight ([3]; 3.0 mg/kg/day P.O.): 161.0 ± 17.7 mg
Bone/Cartilage Destruction Score ([3]; 3.0 mg/kg/day P.O.): 2.6
Effect on thymus weight loss ([3]; 10 mg/kg/day): inhibited the loss in weight of the thymus
% Inhibition Foot Swelling-Day 14 ([3]; 10.0 mg/kg/day P.O.): 73%
% Inhibition Foot Swelling-Day 21 ([3]; 10.0 mg/kg/day P.O.): 66%
Adrenal Weight ([3]; 10.0 mg/kg/day P.O.): 91.8 ± 2.7 mg
Change Body Weight 0-21 days ([3]; 10.0 mg/kg/day P.O.): -12.2 ± 2.9 gm
Foot Swelling-Day 14 ([3]; 10.0 mg/kg/day P.O.): 279 ± 39
Foot Swelling-Day 21 ([3]; 10.0 mg/kg/day P.O.): 554 ± 67
Thymus Weight ([3]; 10.0 mg/kg/day P.O.): 241.5 ± 17.1 mg
Bone/Cartilage Destruction Score ([3]; 10.0 mg/kg/day P.O.): 1.1
Effect on body weight loss ([3]; both dose levels (3.0 and 10 mg/kg/day)): significantly inhibited body weight loss
Inhibition of swelling of the noninjected hindpaw ([3]; chronic (21 days)): marked inhibition of swelling of the noninjected hindpaw
Protection from bone/cartilage (hard tissue) destruction, X-ray [3]: protection of the bone and cartilage destruction was only seen at the 10 mg/kg day dose level
ED50 ([3]; po, 336 h, rat, p.o., swelling of noninjected hindpaw, day 14): 3 mg/kg
% Inhibition of Lesions ([4]; 0.1 mg/kg P.O.): 47%
No. Gastric Lesions ([4]; 0.1 mg/kg P.O., indomethacin-induced (10 mg/kg)): 6.7 ± 4.1
% Inhibition of Lesions ([4]; 0.3 mg/kg P.O.): 60%
No. Gastric Lesions ([4]; 0.3 mg/kg P.O., indomethacin-induced (10 mg/kg)): 5.0 ± 3.1
% Inhibition of Lesions ([4]; 1.0 mg/kg P.O.): 52%
No. Gastric Lesions ([4]; 1.0 mg/kg P.O., indomethacin-induced (10 mg/kg)): 6.1 ± 5.5
% Inhibition of Lesions ([4]; 10.0 mg/kg P.O.): 81%
No. Gastric Lesions ([4]; 10.0 mg/kg P.O., indomethacin-induced (10 mg/kg)): 2.4 ± 1.1

CN1C(C(=O)Nc2ccccn2)=C(O)c2ccccc2S1(=O)=O [Piroxicam, reference compound]
responders at 30 mg/kg [1, 6]: 0%
Effect in PAF-induced hyperalgesia assay ([1]; rat): completely ineffective
ED50 [2]: 2 mg/kg

O=C(O)c1cc(-c2ccc(F)cc2F)ccc1O [Diflunisal, reference compound]
responders at 30 mg/kg [1, 6]: 10%

COc1ccc2c(c1)c(CC(=O)O)c(C)n2C(=O)c1ccc(Cl)cc1 [Indomethacin, reference compound]
% Rats Exhibiting Analgesia ([1]; Table 2, 10 mg/kg p.o.): 10%
Effect in PAF-induced hyperalgesia assay ([1]; rat): completely ineffective
% Inhibition Foot Swelling-Day 14 ([3]; 1.0 mg/kg/day P.O.): 87%
% Inhibition Foot Swelling-Day 21 ([3]; 1.0 mg/kg/day P.O.): 88%
Adrenal Weight ([3]; 1.0 mg/kg/day P.O.): 82.7 ± 2.8 mg
Change Body Weight 0-21 days ([3]; 1.0 mg/kg/day P.O.): 0.7 ± 3.4 gm
Foot Swelling-Day 21 ([3]; 1.0 mg/kg/day P.O.): 190 ± 38
Thymus Weight ([3]; 1.0 mg/kg/day P.O.): 359.6 ± 17.9 mg
Bone/Cartilage Destruction Score ([3]; 1.0 mg/kg/day P.O.): 0.1
Protection from bone/cartilage (hard tissue) destruction, X-ray [3]: virtually complete protection from hard tissue destruction
No. Gastric Lesions ([4]; indomethacin alone 10.0 mg/kg P.O.): 12.6 ± 4.4

COc1ccc2cc([C@H](C)C(=O)O)ccc2c1 [Naproxen, reference compound]
% Rats Exhibiting Analgesia ([1]; Table 2, 30 mg/kg p.o.): 10%

CC(C(=O)O)c1ccc2oc(-c3ccc(Cl)cc3)nc2c1 (stereo not shown) [Benoxaprofen, reference compound]
responders at 30 mg/kg [1, 6]: 10%
Effect in PAF-induced hyperalgesia assay ([1]; rat): completely ineffective

CCCCC[C@H](O)/C=C/[C@@H]1[C@@H](C/C=C\CCCC(=O)O)[C@H](O)C[C@H]1O [protaglandin F2B]
Gastric cytoprotection [5]: does induce gastric cytoprotection
Inhibition of gastric acid secretion [5]: does not inhibit gastric acid secretion

CC1=C(CC(=O)O)c2cc(F)ccc2/C1=C\c1ccc([S+](C)[O-])cc1 (stereo not shown) [Sulindac, reference compound]
responders at 30 mg/kg [1, 6]: 10%

CC(=O)Oc1ccccc1C(=O)O [Aspirin, reference compound]
% Rats Exhibiting Analgesia ([1]; Table 2, 100 mg/kg p.o.): 10%

Source: US5068248A, “N-alkenyl-3-hydroxybenzo[b]thiophene-2-carboxamide derivatives as dual cyclooxygenase and lipoxygenase inhibitors” (Merck & Co., Inc., priority 1989, dated 1991)
